This passage reports IC50 and GI50 results from ChEMBL document CHEMBL5512632, “Unlocking the potential of 1,4-naphthoquinones: A comprehensive review of their anticancer properties” (Eur J Med Chem, 2024).

pIC50: −log10 of the molar value.

One data set deals with SiHa. As to the kind of experiment: Antiproliferative activity against human SiHa cells assessed as inhibition of cell growth by crystal violet staining based spectrophotometric assay. It is filed as functional.
Data set [1] is described as follows: Antiproliferative activity against human CaLo cells assessed as inhibition of cell growth by crystal violet staining based spectrophotometric assay. It is filed as functional.
For the next data set, the system named is C-33-A. As to the kind of experiment: Antiproliferative activity against human C-33-A cells assessed as inhibition of cell growth by crystal violet staining based spectrophotometric assay. The data set is classed as functional.
In data set [2] the test system is MCF7. As to the kind of experiment: Cytotoxicity against human MCF7 cells assessed as inhibition of cell growth incubated for 72 hrs by resazurin assay. The data set is classed as functional, cell-based. The following applies: MCF7, 72 h.
A further data set concerns Huh-7. Put plainly: Cytotoxicity against human Huh-7 cells assessed as inhibition of cell growth incubated for 72 hrs by resazurin assay. The data set is classed as functional, cell-based. Particulars: Huh-7, 72 h.
For data set [3], the system named is HCT-116. As to the kind of experiment: Cytotoxicity against human HCT-116 cells assessed as inhibition of cell growth incubated for 72 hrs by resazurin assay. It is filed as functional, cell-based. The following applies: HCT-116, 72 h.
The test system of the next data set is U-87 MG. As to the kind of experiment: Cytotoxicity against human U87 cells assessed as inhibition of cell growth incubated for 72 hrs by resazurin assay. It is filed as functional, cell-based, U-87MG ATCC.
Data set [4] deals with MDA-MB-231. As to the kind of experiment: Cytotoxicity against human MDA-MB-231 cells assessed as inhibition of cell growth incubated for 72 hrs by resazurin assay. The data set is classed as functional, cell-based. The following applies: MDA-MB-231, 72 h.
A further data set concerns C6. Put plainly: Antiproliferative activity against rat C6 cells assessed as inhibition of cell growth incubated for 72 hrs by Sulforhodamine B assay. It is filed as functional, cell-based. The following applies: C6, 72 h.
Another data set has as its system B16-F10. As to the kind of experiment: Antiproliferative activity against mouse B16-F10 cells assessed as inhibition of cell growth incubated for 72 hrs by Sulforhodamine B assay. The data set is classed as functional, cell-based. The following applies: B16-F10, 72 h.
Data set [5] has as its system A549. Put plainly: Antiproliferative activity against human A549 cells assessed as inhibition of cell growth incubated for 72 hrs by Sulforhodamine B assay. It is filed as functional, cell-based. Particulars: A549, 72 h.
A further data set concerns SK-BR-3. As to the kind of experiment: Antiproliferative activity against human SK-BR-3 cells assessed as inhibition of cell growth incubated for 72 hrs by Sulforhodamine B assay. The data set is classed as functional, cell-based. The following applies: SK-BR-3, 72 h.
Data set [6] relates to MCF7. As to the kind of experiment: Antiproliferative activity against human MCF7 cells assessed as inhibition of cell growth incubated for 72 hrs by Sulforhodamine B assay. The data set is classed as functional, cell-based. The following applies: MCF7, 72 h.
The test system of data set [7] is MDA-MB-231. As to the kind of experiment: Antiproliferative activity against human MDA-MB-231 cells assessed as inhibition of cell growth incubated for 72 hrs by Sulforhodamine B assay. The data set is classed as functional, cell-based. The following applies: MDA-MB-231, 72 h.
The nature of data set [8]: Antiproliferative activity against human HGF cells assessed as inhibition of cell growth incubated for 72 hrs by Sulforhodamine B assay. It is filed as toxicity, cell-based.
The subject of data set [9] is MCF7. As to the kind of experiment: Growth inhibition of human MCF7 cells incubated for 48 hrs by Sulforhodamine B reagent based spectrophotometric assay. It is filed as functional.
The subject of data set [10] is MDA-MB-231. As to the kind of experiment: Growth inhibition of human MDA-MB-231 cells incubated for 48 hrs by Sulforhodamine B reagent based spectrophotometric assay. It is filed as functional.
The subject of data set [11] is MCF7. Put plainly: Antiproliferative activity against human MCF7 cells assessed as inhibition of cell growth incubated for 48 hrs by MTT reagent based spectrophotometric analysis. The following applies: MCF7, 48 h. It is filed as functional.
For another data set, the system named is HepG2. Put plainly: Antiproliferative activity against human HepG2 cells assessed as inhibition of cell growth incubated for 48 hrs by MTT reagent based spectrophotometric analysis. Particulars: HepG2, 48 h. It is filed as functional.
The test system of a further data set is COLO-829. Put plainly: Antiproliferative activity against human COLO-829 cells assessed as inhibition of cell growth incubated for 72 hrs by WST-1 assay. The following applies: COLO-829, 72 h. It is filed as functional, cell-based.
The test system of data set [12] is MDA-MB-231. As to the kind of experiment: Antiproliferative activity against human MDA-MB-231 cells assessed as inhibition of cell growth incubated for 72 hrs by WST-1 assay. The data set is classed as functional, cell-based. The following applies: MDA-MB-231, 72 h.
The next data set has as its system T47D. As to the kind of experiment: Antiproliferative activity against human T47D cells assessed as inhibition of cell growth incubated for 72 hrs by WST-1 assay. The data set is classed as functional, cell-based.
In data set [13] the test system is MCF7. As to the kind of experiment: Antiproliferative activity against human MCF7 cells assessed as inhibition of cell growth incubated for 72 hrs by WST-1 assay. The following applies: MCF7, 72 h. The data set is classed as functional, cell-based.
The next data set relates to Caco-2. As to the kind of experiment: Antiproliferative activity against human Caco-2 cells assessed as inhibition of cell growth incubated for 72 hrs by WST-1 assay. Particulars: Caco-2, 72 h. It is filed as functional, cell-based.
Data set [14] concerns A549. As to the kind of experiment: Antiproliferative activity against human A549 cells assessed as inhibition of cell growth incubated for 72 hrs by WST-1 assay. It is filed as functional, cell-based. Particulars: A549, 72 h.
Data set [15] relates to HCT-116. Put plainly: Antiproliferative activity against human HCT-116 cells assessed as inhibition of cell growth incubated for 48 hrs by MTS assay. The data set is classed as functional, cell-based. The following applies: HCT-116, 48 h.
Data set [16] concerns MCF7. Put plainly: Antiproliferative activity against human MCF7 cells assessed as inhibition of cell growth incubated for 48 hrs by MTS assay. It is filed as functional, cell-based. Particulars: MCF7, 48 h.
Data set [17] deals with HeLa. As to the kind of experiment: Antiproliferative activity against human HeLa cells assessed as inhibition of cell growth incubated for 48 hrs by MTS assay. It is filed as functional, cell-based.
A further data set relates to NCI-H1299. Put plainly: Antiproliferative activity against human NCI-H1299 cells assessed as inhibition of cell growth incubated for 48 hrs by MTS assay. The data set is classed as functional, cell-based. The following applies: NCI-H1299, 48 h.
The test system of the next data set is B16. Put plainly: Antiproliferative activity against mouse B16 cells assessed as inhibition of cell growth incubated for 48 hrs by MTS assay. The data set is classed as functional, cell-based. Particulars: B16, 48 h.
Data set [18] has as its system HeLa. Put plainly: Antiproliferative activity against human HeLa cells assessed as inhibition of cell growth incubated for 48 hrs by MTT assay. It is filed as functional, cell-based.
For the next data set, the system named is SH-SY5Y. Put plainly: Antiproliferative activity against human SH-SY5Y cells assessed as inhibition of cell growth incubated for 48 hrs by MTT assay. It is filed as functional, cell-based.
A further data set deals with SAOS-2. As to the kind of experiment: Antiproliferative activity against human SAOS-2 cells assessed as inhibition of cell growth incubated for 48 hrs by MTT assay. Particulars: SAOS-2, 48 h. The data set is classed as functional, cell-based.
For the next data set, the system named is U2OS. As to the kind of experiment: Antiproliferative activity against human U2OS cells assessed as inhibition of cell growth incubated for 48 hrs by MTT assay. The data set is classed as functional, cell-based.
For data set [19], the system named is HCT-116. Put plainly: Antiproliferative activity against human HCT-116 cells assessed as inhibition of cell growth by MTT assay. The data set is classed as functional, cell-based.
Another data set concerns A2780. Put plainly: Antiproliferative activity against human A2780 cells assessed as inhibition of cell growth incubated for 48 hrs by MTT reagent based spectrophotometric analysis. The data set is classed as functional. The following applies: A2780, 48 h.
Another data set deals with SK-OV-3. Put plainly: Antiproliferative activity against human SK-OV-3 cells assessed as inhibition of cell growth incubated for 48 hrs by MTT reagent based spectrophotometric analysis. It is filed as functional. Particulars: SK-OV-3, 48 h.
The next data set relates to OVCAR-3. Put plainly: Antiproliferative activity against human OVCAR-3 cells assessed as inhibition of cell growth incubated for 48 hrs by MTT reagent based spectrophotometric analysis. The data set is classed as functional. Particulars: OVCAR-3, 48 h.
In a further data set the test system is K562. Put plainly: Antiproliferative activity against human K562 cells assessed as inhibition of cell growth incubated for 72 hrs by MTT assay. The data set is classed as functional, cell-based. The following applies: K562, 72 h.
Data set [20] concerns MDA-MB-231. As to the kind of experiment: Antiproliferative activity against human MDA-MB-231 cells assessed as inhibition of cell growth incubated for 72 hrs by trypan blue exclusion assay. It is filed as functional, cell-based. Particulars: MDA-MB-231, 72 h.

On to `O=C1C(Cl)=C(NC(Cc2ccc(O)cc2)C(=O)O)C(=O)c2ccccc21` (stereo not given), for which the pIC50 in the data set on SiHa was 5.17; in [1], 5.54; in the data set on C-33-A it was 9.00.
As to `CCOC(=O)C(NC1=C(Cl)C(=O)c2ccccc2C1=O)C(C)=O` (stereo not given), the pIC50 in the data set on MCF7 [2] is 4.61; with Huh-7 it was 4.74; with HCT-116 [3], 4.86; in the data set on U-87 MG, 4.72; in the data set on MDA-MB-231 [4] it was 4.80.
For `CC(=O)OC[C@H]1O[C@H](n2cc(COC3=CC(=O)c4ccccc4C3=O)nn2)[C@H](OC(C)=O)[C@H](OC(C)=O)[C@H]1OC(C)=O`, the pIC50 was 4.83 in the data set on C6; 5.28 with B16-F10; 5.07 in the data set on A549 [5]; 6.11 with SK-BR-3; 5.48 with MCF7 [6]; 4.85 with MDA-MB-231 [7]. The IC50 at 72 h in data set [8] was 17.7 µM.
On to `O=C1C(Cl)=C(N2CCN(Cc3ccc4c(c3)OCO4)CC2)C(=O)c2ccccc21`, for which the GI50 is 5.8 µM in the data set on MCF7 [9] and 5 µM with MDA-MB-231 [10].
For `O=C1C(Cl)=C(NNc2nnc3n2N=C(c2ccc(Cl)cc2)CS3)C(=O)c2ccccc21`, the pIC50 with MCF7 [11] is 5.07; in the data set with HepG2, 7.15.
On to `C=C(C)[C@@H]1CC[C@]2(COC(=O)c3cn(CCCOC4=C(Cl)C(=O)c5ccccc5C4=O)nn3)CC[C@]3(C)[C@H](CC[C@@H]4[C@@]5(C)CC[C@H](O)C(C)(C)[C@@H]5CC[C@]43C)[C@@H]12`, for which the pIC50 in the data set with COLO-829 was 4.90; in the data set on MDA-MB-231 [12], 5.00; in the data set with T47D it was 5.62; in the data set with MCF7 [13], 4.93; with Caco-2, 4.91; with A549 [14] it was 5.73.
`CN(C)C(=S)SCC1=C(CSC(=S)N(C)C)C(=O)c2ccccc2C1=O`: the pIC50 was 7.06 in the data set with HCT-116 [15]; 7.16 with MCF7 [16]; 6.91 in the data set with HeLa [17]; 6.96 in the data set with NCI-H1299; 6.98 with B16.
Consider `CC(=O)N[C@@H](CSC1=CC(=O)c2ccccc2C1=O)C(=O)O`, for which the pIC50 in the data set with HeLa [18] was 6.27; in the data set on SH-SY5Y, 6.06; in the data set on SAOS-2, 5.78; in the data set on U2OS, 5.74.
In the case of `O=C1C=C(Sc2ccc([N+](=O)[O-])cc2)C(=O)c2ccccc21`, in the data set with HCT-116 [19], the pIC50 was 5.27.
Turning to `O=C1C=C(N(Cc2ccccn2)Cc2ccccn2)C(=O)c2ccccc21`, the pIC50 in the data set with A2780 was 5.25; with SK-OV-3, 5.55; with OVCAR-3, 5.17.
Take `O=C1C=C(Nc2ccc(S(=O)(=O)c3ccc(NC(=S)N4CCCCC4)cc3)cc2)C(=O)c2ccccc21`: the pIC50 in the data set with K562 was 5.24.
Take `COC1=CC(=O)c2ccccc2C1=O` [2-Methoxy-1,4-naphthoquinone]: the pIC50 in the data set with MDA-MB-231 [20] is 5.12.
